Assays:
[1] = molecular target: T1, Recombinant purified human JAK3 (Homo sapiens, UniProt P52333); assay: JAK3 kinase inhibitory activity, ADP-Glo kinase assay (Promega V9441); assay type: biochemical; details: for IC50: ATP 5 uM, 4 ng JAK3 per reaction, 1 hour 30 °C, chemiluminescence
T1 construct: purchased Promega V9441
T1 sequence (P52333 1-1124): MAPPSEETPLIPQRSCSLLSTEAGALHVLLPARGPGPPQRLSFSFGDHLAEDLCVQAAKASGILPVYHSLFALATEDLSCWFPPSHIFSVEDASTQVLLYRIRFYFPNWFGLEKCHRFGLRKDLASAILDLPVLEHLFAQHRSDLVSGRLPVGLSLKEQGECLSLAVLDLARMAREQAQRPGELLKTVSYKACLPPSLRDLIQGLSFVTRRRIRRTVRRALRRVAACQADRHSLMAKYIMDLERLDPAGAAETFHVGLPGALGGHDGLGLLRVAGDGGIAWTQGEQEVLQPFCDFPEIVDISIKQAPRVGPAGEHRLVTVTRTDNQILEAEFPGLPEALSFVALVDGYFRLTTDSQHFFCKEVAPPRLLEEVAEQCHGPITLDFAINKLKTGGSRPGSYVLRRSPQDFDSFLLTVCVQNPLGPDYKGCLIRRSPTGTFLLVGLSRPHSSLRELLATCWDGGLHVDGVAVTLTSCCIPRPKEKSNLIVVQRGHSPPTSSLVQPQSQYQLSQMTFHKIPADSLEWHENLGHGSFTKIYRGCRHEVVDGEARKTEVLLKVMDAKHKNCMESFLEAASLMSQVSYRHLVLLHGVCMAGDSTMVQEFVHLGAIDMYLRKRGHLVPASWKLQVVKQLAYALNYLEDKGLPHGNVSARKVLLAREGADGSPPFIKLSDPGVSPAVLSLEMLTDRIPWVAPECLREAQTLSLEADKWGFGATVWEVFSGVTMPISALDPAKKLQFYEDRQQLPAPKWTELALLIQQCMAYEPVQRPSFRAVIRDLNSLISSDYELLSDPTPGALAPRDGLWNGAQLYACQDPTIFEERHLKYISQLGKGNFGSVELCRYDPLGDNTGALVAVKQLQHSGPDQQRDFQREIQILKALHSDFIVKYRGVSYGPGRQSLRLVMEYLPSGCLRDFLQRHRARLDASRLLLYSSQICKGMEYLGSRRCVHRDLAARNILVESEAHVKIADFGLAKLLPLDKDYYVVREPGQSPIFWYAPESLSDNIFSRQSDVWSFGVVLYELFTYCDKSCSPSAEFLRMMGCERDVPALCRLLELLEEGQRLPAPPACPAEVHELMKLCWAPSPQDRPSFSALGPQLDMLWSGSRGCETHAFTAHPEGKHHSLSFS
In short: (§1)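 Recombinant human kinases in Tris pH 7.5 buffer with MgCl2, BSA and DTT (MnCl2 added for BTK), 4 ng JAK3 or 8 ng BTK per reaction. Poly(Glu4,Tyr1) 0.2 µg/µL with 5 µM (JAK3) or 10 µM (BTK) ATP, 1% DMSO, 1 h at 30 °C. ADP-Glo luminescence used to derive IC50.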

[2] = molecular target: T2, Recombinant purified human BTK (Homo sapiens, UniProt Q06187); assay: BTK kinase inhibitory activity, ADP-Glo kinase assay (Promega V9071); assay type: biochemical; details: for IC50: ATP 10 uM, 8 ng BTK per reaction, 1 hour 30 °C, chemiluminescence; for inhibition at 1 µM: @1uM compound
T2 construct: purchased Promega V9071
T2 sequence (Q06187 whole entry): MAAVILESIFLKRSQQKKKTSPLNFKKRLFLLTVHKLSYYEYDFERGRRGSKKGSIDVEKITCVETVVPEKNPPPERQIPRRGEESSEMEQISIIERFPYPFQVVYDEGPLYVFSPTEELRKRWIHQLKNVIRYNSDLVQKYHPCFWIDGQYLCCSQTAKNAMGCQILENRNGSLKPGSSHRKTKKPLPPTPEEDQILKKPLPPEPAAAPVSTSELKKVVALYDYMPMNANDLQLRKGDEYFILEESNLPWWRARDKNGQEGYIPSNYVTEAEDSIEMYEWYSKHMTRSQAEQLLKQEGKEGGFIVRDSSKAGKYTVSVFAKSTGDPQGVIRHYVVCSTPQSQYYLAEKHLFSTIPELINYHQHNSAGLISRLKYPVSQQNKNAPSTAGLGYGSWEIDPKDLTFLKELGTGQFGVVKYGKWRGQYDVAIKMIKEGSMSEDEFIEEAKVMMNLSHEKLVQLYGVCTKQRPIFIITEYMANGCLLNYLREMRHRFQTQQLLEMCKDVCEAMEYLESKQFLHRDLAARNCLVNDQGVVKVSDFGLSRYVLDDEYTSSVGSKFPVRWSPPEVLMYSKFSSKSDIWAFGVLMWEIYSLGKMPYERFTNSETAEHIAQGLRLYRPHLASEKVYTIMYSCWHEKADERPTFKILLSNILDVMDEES
In short: as §1

SMILES | IC50 [1] | IC50 [2] | inhibition at 0.1 µM ([2]; @100nM compound) | inhibition at 1 µM ([1]; @1uM compound, printed in the JAK3 IC50 column) | inhibition at 1 µM [2]
C=CC(=O)N1CCC[C@@H](Sc2nc(Nc3cnn(CC(F)(F)F)c3)nc3[nH]nc(Cl)c23)C1 [Example 114, (R)-1-(3-((3-chloro-6-((1-(2,2,2-trifluoroethyl)-1H-pyrazol-4-yl)amino)-1H-pyrazolo [3,4-d]pyrimidin-4-yl)thio)piperidin-1-yl)prop-2-en-1-one] | 0.9 nM | 2.3 nM |  |  | 
C=CC(=O)N1CCC[C@@H](Oc2nc(Nc3cnn(CC)c3)nc3[nH]nc(Cl)c23)C1 [Example 147] | 1.4 nM | 2.1 nM |  |  | 
C=CC(=O)N1CCC[C@@H](Nc2nc(Nc3cnn(CC(=O)NC)c3)nc3[nH]ncc23)C1 [Example 35, (R)-2-(4-(4-(1-acryloylpiperidin-3-ylamino)-1H-pyrazolo[3,4-d]pyrimidin-6-ylamino)-1H-pyrazol-1-yl)-N-methylacetamide] | 5.2 nM | 2.1 nM |  |  | 
C=CC(=O)N1CC[C@@H](C)[C@@H](Nc2nc(Nc3cnn(CC(C)C)c3)nc3[nH]nc(Cl)c23)C1 [Example 124, 1-((3R,4R)-3-((3-chloro-6-((1-isobutyl-1H-pyrazol-4-yl)amino)-1H-pyrazolo[3,4-d]pyrimidin-4-yl)amino)-4-methylpiperidin-1-yl)prop-2-en-1-one] | 8.4 nM | 3.5 nM |  |  | 
CC#CC(=O)N1CCC[C@@H](Nc2nc(Nc3cnn(CC(F)F)c3)nc3[nH]ccc23)C1 [Example 25, (R)-1-(3-(2-(1-(2,2-difluoroethyl)-1H-pyrazol-4-ylamino)-7H-pyrrolo[2,3-d]pyrimidin-4-ylamino)piperidin-1-yl)but-2-yn-1-one] | 11.2 nM |  | 39.3% |  | 
CCn1cc(Nc2nc(N[C@H]3CN(C(=O)/C(C#N)=C/C(C)C)CC[C@H]3F)c3c(Cl)n[nH]c3n2)cn1 [Example 160, (E)-2-((3S,4R)-3-((3-chloro-6-((1-ethyl-1H-pyrazol-4-yl)amino)-1H-pyrazolo[3,4-d]pyrimidin-4-yl)amino)-4-fluoropiperidine-1-carbonyl)-4-methylpent-2-enenitrile] | 1.5 nM | 3.4 nM |  |  | 
C=CC(=O)N1CC[C@@H](C)[C@@H](Nc2nc(Nc3cnn(C(F)F)c3)nc3[nH]nc(Cl)c23)C1 [Example 127, 1-((3R,4R)-3-((3-chloro-6-((1-(difluoromethyl)-1H-pyrazol-4-yl)amino)-1H-pyrazolo [3,4-d]pyrimidin-4-yl)amino)-4-methylpiperidin-1-yl)prop-2-en-1-one] | 43.1 nM | 1.5 nM |  |  | 
C=CC(=O)N1CC[C@@H](C)[C@@H](Nc2nc(Nc3cnn(CC)c3)nc3[nH]cc(F)c23)C1 [Example 84, 1-((3R,4R)-3-((2-((1-ethyl-1H-pyrazol-4-yl)amino)-5-fluoro-7H-pyrrolo[2,3-d]pyrimidin-4-yl)amino)-4-methylpiperidin-1-yl)prop-2-en-1-one] | 3.8 nM | 6.6 nM |  |  | 
C=CC(=O)N1CCC[C@@H](Nc2nc(Nc3cnn(CC(C)C)c3)nc3[nH]nc(Cl)c23)C1 [Example 55, (R)-1-(3-(3-chloro-6-(1-isobutyl-1H-pyrazol-4-ylamino)-1H-pyrazolo [3,4-d]pyrimidin-4-ylamino)piperidin-1-yl)prop-2-en-1-one] | 1.3 nM | 1.2 nM |  |  | 
C=CC(=O)N1CCC[C@@H](Nc2nc(Nc3cnn(C)c3)nc3[nH]ncc23)C1 [Example 32, (R)-1-(3-(6-(1-methyl-1H-pyrazol-4-ylamino)-1H-pyrazolo[3,4-d]pyrimidin-4-ylamino)piperidin-1-yl)prop-2-en-1-one] | 10.7 nM | 2.8 nM |  |  | 
C=CC(=O)N1CC[C@@H](C)[C@@H](N(C)c2nc(Nc3ccc(N4CCN(C)CC4)cc3)nc3[nH]ccc23)C1 [Example 27, 1-((3R,4R)-4-methyl-3-(methyl(2-(4-(4-methylpiperazin-1-yl)phenylamino)-7H-pyrrolo[2,3-d]pyrimidin-4-yl)amino)piperidin-1-yl)prop-2-en-1-one] |  |  |  | 32.8% | 48%
C=CC(=O)N1CCC[C@@H](Nc2nc(Nc3cnn(CCOC)c3)nc3[nH]ncc23)C1 [Example 74, (R)-1-(3-((6-((1-(2-methoayethyl)-1H-pyrazol-4-yl)amino)-1H-pyrazolo[3,4-d]pyrimidin-4-yl)amino)piperidin-1-yl)prop-2-en-1-one] | 5.4 nM | 1.7 nM |  |  | 
C=CC(=O)N1CCC[C@@H](Oc2nc(Nc3cnn(C4CC4)c3)nc3[nH]nc(Cl)c23)C1 [Example 153] | 1.6 nM | 2.2 nM |  |  | 
C=CC(=O)N1CCC[C@@H](Nc2nc(Nc3cccc(NC(=O)N4CCCC4)c3)nc3[nH]ccc23)C1 [Example 2, (R)-N-(3-(4-(1-acryloylpiperidin-3-ylamino)-7H-pyrrolo[2,3-d]pyrimidin-2-ylamino)phenyl)pyrrolidine-1-carboxamide] | 8.9 nM | 27 nM |  |  | 
C=CC(=O)N1CC[C@@H](C)[C@@H](Nc2nc(Nc3cnn(CC#N)c3)nc3[nH]nc(Cl)c23)C1 [Example 126, 2-(4-((4-(((3R,4R)-1-acryloyl-4-methylpiperidin-3-yl)amino)-3-chloro-1H-pyrazolo[3,4-d]pyrimidin-6-yl)amino)-1H-pyrazol-1-yl)acetonitrile] | 2.9 nM | 1.2 nM |  |  | 
C=CC(=O)N1CCC[C@@H](Nc2nc(Nc3cnn(CC(=O)NC)c3)nc3[nH]cc(Cl)c23)C1 [Example 60, (R)-2-(4-((4-((1-acryloylpiperidin-3-yl)amino)-5-chloro-7H-pyrrolo[2,3-d]pyrimidin-2-yl)amino)-lH-pyrazol-1-yl)-N-methylacetamide] | 0.2 nM | 1.7 nM |  |  | 
C=CC(=O)NC1CCCC(Nc2nc(Nc3ccc(N4CCN(C)CC4)cc3)nc3[nH]ccc23)C1 (centres unmarked) [Example 29, N-(3-(2-(4-(4-methylpiperazin-1-yl)phenylamino)-7H-pyrrolo[2,3-d]pyrimidin-4-ylamino)cyclohexyl)acrylamide] | 66.2 nM |  |  |  | 47.1%
C=CC(=O)N1CCC[C@@H](Nc2nc(Nc3cnn(CCOC)c3)nc3[nH]ccc23)C1 [Example 17, (R)-1-(3-(2-(1-(2-methoayethyl)-1H-pyrazol-4-ylamino)-7H-pyrrolo[2,3-d]pyrimidin-4-ylamino)piperidin-1-yl)prop-2-en-1-one] | 0.6 nM | 11.8 nM |  |  | 
C=CC(=O)N1CC[C@@H](F)[C@@H](Nc2nc(Nc3cnn(CC)c3)nc3[nH]cc(F)c23)C1 [Example 86, 1-((3S,4R)-3-((2-((1-ethyl-1H-pyrazol-4-yl)amino)-5-fluoro-7H-pyrrolo[2,3-d]pyrimidin-4-yl)amino)-4-fluoropiperidin-1-yl)prop-2-en-1-one] | 0.4 nM | 1 nM |  |  | 
C=CC(=O)N1CC[C@@H](C)[C@@H](Nc2nc(Nc3cnn(CC(F)(F)F)c3)nc3[nH]nc(Cl)c23)C1 [Example 120, 1-((3R,4R)-3-((3-chloro-6-((1-(2,2,2-trifluoroethyl)-1H-pyrazol-4-yl)amino)-1H-pyrazolo[3,4-d]pyrimidin-4-yl)amino)-4-methylpiperidin-1-yl)prop-2-en-1-one] | 7.8 nM | 7.5 nM |  |  | 
C=CC(=O)N1CC[C@@H](C)[C@@H](Nc2nc(Nc3cnn(CCN4CCOCC4)c3)nc3[nH]nc(Cl)c23)C1 [Example 123, 1-((3R,4R)-3-((3-chloro-6-((1-(2-morpholinoethyl)-1H-pyrazol-4-yl)amino)-1H-pyrazolo[3,4-d]pyrimidin-4-yl)amino)-4-methylpiperidin-1-yl)prop-2-en-1-one] | 7.9 nM | 5.8 nM |  |  | 
C=CC(=O)N1CCC[C@@H](Nc2nc(Nc3cnn(CC(=O)NC)c3)nc3[nH]nc(Cl)c23)C1 [Example 47, (R)-2-(4-(4-(1-acryloylpiperidin-3-ylamino)-3-chloro-1H-pyrazolo[3,4-d]pyrimidin-6-ylamino)-1H-pyrazol-1-yl)-N-methylacetamide] | 1.1 nM | 5.2 nM |  |  | 
